Data as given in US12358904B2, “Inhibitors of TYK2” (Atomwise Inc., priority 2023, dated 2025).

Columns and labels:
IL-12/pSTAT4 = assay: IL-12 induced pSTAT4 assay in NK-92 cells; type: cell-based; details: Homo sapiens, NK92, IL-12 stimulation, read-out: Cellular potency (IL-12/pSTAT4)
Description: The following example describes the IL-12 induced pSTAT4 assay used to determine the cellular potency (IL-12/pSTAT4) of the TYK2 inhibitors.
NK-92 cells (human natural killer lymphoma cell line) were cultured in MEM α, nucleosides (Life Technologies, 22571020) 12.5% heat inactivated FBS (Dominique Dutscher, S1810), 12.5% heat inactivated Horse serum (Life Technologies, 26050088) and 1% Penicillin-Streptomycin (Life Technologies, 15140122), 5 ng/mL human IL-2 (R&D systems, 202-II/CF), 0.2 mM inositol (Sigma, PHR1351 lot LRAC4118), 0.1 mM β-mercaptoethanol (Life Technologies, 31350010), and 0.02 mM folic acid (Sigma, F8758).
NK-92 cells were starved overnight in starvation medium (Opti-MEM (ThermoFisher, 11058-021), 10% charcoal stripped FBS (ThermoFisher 12676-029), and 1% Penicillin (100U/ml)-Streptomycin (100 μg/ml) (ThermoFisher, ref 15140122)), then plated in a 96-well tissue culture plate (20K cells/well) prior to pre-incubation with test compounds (Final Concentration [nM] 1000 to 0.05) for 30 minutes at 37° C. Cells were stimulated with IL-12 (Final Concentration l0 ng/ml) for 30 minutes at 37° C., and terminated by addition of lysis buffer (MSD K150PAD-2). pSTAT4 (Tyr693) was detected using the Mesa Scale Discovery platform (MSD K150PAD-2), according to manufacturer's instruction. Briefly, cell lysates were added to pre-blocked plates and incubated for 1 hour at room temperature. Plates were washed and incubated with detection antibody for 1 hour at room temperature. Plates were washed and Read Buffer was added prior to measurement on the MSD (1300 MSD Quickplex SQ 120).

TYK2-JH2 = molecular target: T1, TYK2-JH2 (Homo sapiens, UniProt P29597); assay: TYK2-JH2 HTRF binding assay (ligand efficiency); details: calculated from IC50 of the TYK-JH2 binding assay (Equation 1)
T1 construct: TYK JH2 enzyme mix (ChemPartnec CP20210818A-BV); purchased ChemPartner CP20210818A-BV
T1 sequence (P29597 589-875 limits assumed): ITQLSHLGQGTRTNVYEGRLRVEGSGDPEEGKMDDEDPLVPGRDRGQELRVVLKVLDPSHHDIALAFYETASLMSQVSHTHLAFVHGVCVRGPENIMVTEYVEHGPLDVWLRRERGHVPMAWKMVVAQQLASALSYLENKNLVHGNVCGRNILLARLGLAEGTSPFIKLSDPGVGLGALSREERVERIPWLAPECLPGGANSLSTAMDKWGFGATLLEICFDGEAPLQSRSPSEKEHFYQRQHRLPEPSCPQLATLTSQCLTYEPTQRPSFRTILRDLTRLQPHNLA
Description: The following example describes the TYK2-JH2 HTRF binding assay used to determine the ligand efficiency of the TYK2 inhibitors.
To calculate ligand efficiency, Equation 1 is applied:
[formula] in which IC50 comes from the binding assay used to determine compound potency.
TYK JH2 enzyme mix (ChemPartnec CP20210818A-BV), tracer (ChemPartnec CP-0029472-051) and mAb Anti-6HIS Tb cryptate Gold (Cisbio: Cat No. 61H12TLA) mix were prepared in assay buffer (10 mM MgCl2, 20 mM HEPES pH 7.5, 0.01% Triton X-100, 1 mM DTT). Compounds diluted in DMSO (Final Concentrations 0.1 to 0.000005 [μM]) and enzyme mix (0.5 nM Final Concentration) were added to 384 well plates, briefly centrifuged and incubated at room temperature for 10 minutes. After incubation, tracer mix (Tracer-35 nM final concentration); (Mab Anti-6HIS Tb cryptate Gold-0.5× final)) was added, briefly centrifuged then incubate at room temperature 60 minutes. After incubation, plates were read by Envision TR-FRET (Ex340/Em495/520) protocol (PerkinElmer-Envision 2104 multilabel plate reader).

GM-CSF/pSTAT5 = assay: GM-CSF induced pSTAT5 assay in CellSensor irf1-bla TF-1 cells; type: cell-based; details: Homo sapiens, GM-CSF 1 ng/mL, read-out: Cellular selectivity (GM-CSF induced pSTAT5)
Description: The CellSensor irf1-bla TF-1 cell line (LifeTechnologies, K1657) was cultured in RPMI 1640 Medium (Invitrogen 72400-047), 10% Fetal Bovine Serum (Invitrogen, 26400044), 1 mM Sodium pyruvate (Life Technologies, 11360039), 1% MEM NEAA (Life Technologies, 11140-035), 2 ng/ml of human recombinant GM-CSF (Fisher, PHC2015), 1% Penicillin/Streptomycin (Life Technologies, 15140-122) and 5 μg/ml of Blasticidin (ThermoFisher, A1113903).
The cell line was seeded in a T75 flask at 13×10^6 cells/50 mL in starvation medium (Opti-MEM™ I Reduced Serum Medium, no phenol red (Life Technologies, 11058-021), 1 mM Na pyruvate (Life Technologies, 11360039), 1% MEM NEAA (Life Technologies, 11140-035), and 1% Penicillin/Streptomycin (Life Technologies, 15140-122)) for 16 hours at 37° C. under 5% CO2 the day before the assay.
For the assay, CellSensor irf1-bla TF-1 cells were seeded at 30 000 cells/32 μL (starvation medium)/well in a 384-well plate.
Compounds were added on the cells in 4 μL (starvation medium)/well at 10× the final concentration. They were incubated for 30 minutes at 37° C.
Human recombinant carrier-free GM-CSF (ThermoFisher, ref PHC2015) was added to the wells in 4 μL (starvation medium)/well at 10×. The final concentration was 1 ng/mL. Control wells without GM-CSF treatment were added. Plates were incubated for 5 hours at 37° C.
6× LiveBlazer-FRET substrate (Invitrogen, K1085) was added to the wells at 8 μL/well. The substrate was prepared shortly before use by mixing 6 μL of solution A and 60 μL of solution B to 934 μL of solution C. Plates were incubated for 2.5 hours at room temperature in the dark. The plates were read on an Envision (Perkin Elmer) with an excitation at a wavelength of 409 nm and two wavelengths for the emission 520 nm and 450 nm. The ratio between the […] emission was used to calculate the IC50s.
The IC50 for the inhibition of pSTAT5 was calculated with the Xlfit software using the 4 Parameter Logistic Model or Sigmoidal Dose-Response Model (model 205).

IL-6/pSTAT3 = assay: IL-6 induced pSTAT3 assay in TF-1 cells; type: cell-based; details: Homo sapiens, read-out: Cellular selectivity (IL-6/pSTAT3)
Description: The following example describes the IL-6 induced pSTAT3 assay used to determine the cellular selectivity (IL-6/pSTAT3) of the TYK2 inhibitors.
TF-1 (ATCC®, CRL-2003™) cells were cultured in RPMI 1640 Medium, with GlutaMAX™ Supplement, HEPES for Cell Culture (Life Technologies, 72400047), 10% Fetal Bovine Serum (Life Technologies, 26400044), 2 ng/mL human recombinant GM-CSF (Life Technologies, PHC2013), 1 mM Sodium pyruvate (Life Technologies, 11360039), 1% MEM NEAA (Life Technologies, 11140-035), 1% Penicillin/Streptomycin (Life Technologies, 15140-122).
TF-1 (70×10^6) cells were starved overnight in T01 50 flasks (Opti-MEM™ I Reduced Serum Medium, no phenol red (Life Technologies, 11058-021), 1 mM Na pyruvate (Life Technologies, 11360039), 1% MEM NEAA (Life Technologies, 11140-035), and 1% Penicillin/Streptomycin (Life Technologies, 15140-122)) then seeded into 96-well TPP plates (150 000 cell/well) and incubated with test compounds (Final Concentration [nM] 10000-0.05) for 30 minutes at 37° C. […] Stimulation was terminated by addition of lysis buffer (MSD K150SVD) and pSTAT3 detection was measured with Phospho-STAT3 (Tyr705) Kit MSD K150SVD)) according to manufacturer's instruction. Briefly, cell lysates were added to pre-blocked plates, sealed, and shake for 1 hour at room temperature. Plates were then washed and incubated with detection antibody for 1 hour at room temperature. After washing, Read Buffer was added, and plates were read on MSD instrument (Model 1300 MSD Quickplex SQ 120).

| SMILES | IC50 (IL-12/pSTAT4) [µM] | Ligand Efficiency (TYK2-JH2) | IC50 (GM-CSF/pSTAT5) [µM] | IC50 (IL-6/pSTAT3) [µM] |
| --- | --- | --- | --- | --- |
| CC(c1ccc(Nc2cc(Nc3ncccc3S(C)(=O)=O)ncn2)nc1)N1CC2(CC(F)C2)C1 (stereo in doubt) [Compound 10, N^4-(5-((1R)-1-(6-fluoro-2-azaspiro[3.3]heptan-2-yl)ethyl) 87yridine-2-yl)-N^6-(3-(methylsulfonyl)87yridine-2-yl)pyrimidine-4,6-diamine] | < 0.1 | ††† (†††: >0.39) | > 10 | 4 to 10 |
| COc1cnc(Nc2cc(Nc3ccc([C@H](C)N4CC5(COC5)C4)cn3)ncn2)c(S(C)(=O)=O)c1 [Compound 3, (S)—N^4-(5-(1-(2-oxa-6-azaspiro[3.3]heptan-6-yl)ethyl)pyridine-2-yl)-N^6-(5-methoxy-3-(methylsulfonyl)77yridine-2-yl)pyrimidine-4,6-diamine] | < 0.1 | †† (††: 0.37-0.39) | > 10 | 4 to 10 |
| CS(=O)(=O)c1cccnc1Nc1cc(Nc2ccc3c(n2)CCC[C@@H]3N2CC3(COC3)C2)ncn1 [Compound 5, I-N^4-(5-(2-oxa-6-azaspiro[3.3]heptan-6-yl)-5,6,7,8-tetrahydroquinolin-2-yl)-N^6-(3-(methylsulfonyl)81yridine-2-yl)pyrimidine-4,6-diamine] | < 0.1 | †† (††: 0.37-0.39) | > 10 | 4 to 10 |
| Cc1nc(Nc2cc(Nc3ncccc3S(C)(=O)=O)ncn2)ccc1NC1(C)COC1 [Compound 6, N^4-(6-methyl-5-((3-methyloxetan-3-yl)amino)82yridine-2-yl)-N^6-(3-(methylsulfonyl)82yridine-2-yl)pyrimidine-4,6-diamine] | < 0.1 | ††† (†††: >0.39) | > 10 | 4 to 10 |
| C[C@H]1CN(C2CC2)CCN1c1ccc(Nc2cc(Nc3ncccc3S(C)(=O)=O)ncn2)nc1 [Compound 8, (S)—N^4-(5-(4-cyclopropyl-2-methylpiperazin-1-yl)85yridine-2-yl)-N^6-(3-(methylsulfonyl)85yridine-2-yl)pyrimidine-4,6-diamine] | < 0.1 | ††† (†††: >0.39) | < 4 | 4 to 10 |
| CS(=O)(=O)c1cccnc1Nc1cc(Nc2ccc3c(n2)CC[C@@H]3N2CC3(COC3)C2)ncn1 [Compound 9, N^4-((5S)-5-(2-oxa-6-azaspiro[3.3]heptan-6-yl)-6,7-dihydro-5H-cyclopenta[b]86yridine-2-yl)-N^6-(3-(methylsulfonyl)86yridine-2-yl)pyrimidine-4,6-diamine] | < 0.1 | ††† (†††: >0.39) | > 10 | > 10 |
| C[C@@H](c1ccc(Nc2cc(Nc3ncccc3S(C)(=O)=O)ncn2)nc1C(F)(F)F)N1CC2(COC2)C1 [Compound 11, I-N^4-(5-(1-(2-oxa-6-azaspiro[3.3]heptan-6-yl)ethyl)-6-(trifluoromethyl)90yridine-2-yl)-N^6-(3-(methylsulfonyl)90yridine-2-yl)pyrimidine-4,6-diamine] | < 0.1 | †† (††: 0.37-0.39) | > 10 | < 4 |
| Cc1nc(Nc2cc(Nc3ncccc3S(C)(=O)=O)ncn2)ccc1[C@H](C)N1CC2(COC2)C1 [Compound 12, N^4-(5-(1-(2-oxa-6-azaspiro[3.3]heptan-6-yl)ethyl)-6-methylpyridin-2-yl)-N^6-(3-(methylsulfonyl)92yridine-2-yl)pyrimidine-4,6-diamine] | < 0.1 | ††† (†††: >0.39) | < 4 | < 4 |
| CC(C)[C@@H](c1ccc(Nc2cc(Nc3ncccc3S(C)(=O)=O)ncn2)nc1)N1CC2(COC2)C1 [Compound 13, (S)—N^4-(5-(2-methyl-1-(2-oxa-6-azaspiro[3.3]heptan-6-yl)propyl)pyridine-2-yl)-N^6-(3-(methylsulfonyl)93yridine-2-yl)pyrimidine-4,6-diamine] | < 0.1 | †† (††: 0.37-0.39) | > 10 | 4 to 10 |
| CS(=O)(=O)c1ccccc1Nc1cc(Nc2ccc(C(=O)NC3COC3)cn2)ncn1 [Compound 79, 6-((6-((2-(methylsulfonyl)phenyl)amino)pyrimidin-4-yl)amino)-N-(oxetan-3-yl)nicotinamide] | > 1 | †† (††: 0.37-0.39) |  |  |
| CS(=O)(=O)c1ccccc1Nc1cc(Nc2ccc(NC3COC3)cn2)ncn1 [Compound 80, N^4-(2-(methylsulfonyl)phenyl)-N^6-(5-(oxetan-3-ylamino)177yridine-2-yl) pyrimidine-4,6-diamine] | > 1 | † (†: <0.37) |  |  |
